Earlier results as cited in US12097195B2, “Pharmaceutical composition containing alkynyl compound and preparation method and application thereof” (ASCENTAGE PHARMA (SUZHOU) CO., LTD., priority 2019, dated 2024).

In the case of `Cc1ccc(C(=O)Nc2ccc(CN3CCN(C)CC3)c(C(F)(F)F)c2)cc1C#Cc1cnc2[nH]ncc2c1` [alknyl compound, 3-((1H-pyrazolo[3,4-b]pyridin-5-yl)ethynyl)-4-methyl-N-(4-((4-methylpiperazin-1-yl)methyl)-3-(trifluoromethyl)phenyl)-benzamide], the inhibition rate (chronic leukemia K562) is given as “very good inhibition rate” and the inhibition rate (acute leukemia MOLT) is given as “very good inhibition rate”.
